Where “and” joins values, the source holds several entries; their conditions need not be identical. Equal entries are not always repeated.
Target: T1, PfCRT variant D410A (Plasmodium falciparum, UniProt Q9N623, A220S/D410A/I356T/K76T/M74I/N326S/N75E/Q271E/R371I)
T1 sequence (Q9N623 1-424 M74I/N75E/K76T/A220S/Q271E/N326S/I356T/R371I/D410A): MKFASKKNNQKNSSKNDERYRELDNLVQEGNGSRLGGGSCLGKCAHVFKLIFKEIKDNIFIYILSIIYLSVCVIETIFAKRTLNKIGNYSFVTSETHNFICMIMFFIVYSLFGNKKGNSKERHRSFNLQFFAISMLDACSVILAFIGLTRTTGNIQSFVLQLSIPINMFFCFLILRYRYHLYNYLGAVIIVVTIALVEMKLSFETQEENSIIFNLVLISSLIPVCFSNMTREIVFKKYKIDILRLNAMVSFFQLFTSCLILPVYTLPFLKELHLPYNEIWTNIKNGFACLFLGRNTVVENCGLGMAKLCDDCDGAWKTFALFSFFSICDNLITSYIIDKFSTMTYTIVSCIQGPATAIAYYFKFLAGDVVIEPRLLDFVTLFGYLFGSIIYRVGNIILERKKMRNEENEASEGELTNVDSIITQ
Test: CQ uptake assay, oocytes expressing D410A
Type: cell-based
Experimental: Site-directed mutagenesis of PfCRT^Dd2 was performed as described using the megaprimer method with overlap extension[21],[54]. The primer pairs used are listed in Supplementary Table 6. Please note that a codon-optimized and oocyte-adapted version of PfCRT^Dd2 was used[22] (Supplementary Fig. 16). The resulting DNA fragment was cloned into the SP64T expression vector and verified by sequencing.
Oocytes were obtained as described previously. Briefly, adult (>2 years old) female X. laevis frogs (NASCO) were anesthetized in a cooled solution of ethyl 3-amino benzoate methanesulfonate (0.1%, w/v), followed by a surgical removal of parts of the ovary. The ovary lobes were carefully dissected and small pieces of oocytes were incubated in Ca^2+-free ND96 buffer (96 mM NaCl, 2 mM KCl, 1 mM MgCl2 buffered with 5 mM HEPES/NaOH, pH 7.5) supplemented with collagenase D (0.1%, w/v; Roche), BSA (0.5%, w/v), and 9 mm Na2HPO4 at 18 °C for 14-16 h while gentle shaking. After incubation, the oocytes were carefully washed several times with ND96 buffer (96 mM NaCl, 2 mM KCl, 1.8 mM CaCl2, 1 mM MgCl2 buffered with 5 mM HEPES/NaOH, pH 7.5) supplemented with 100 mg l^−1 gentamycin). Defolliculated and healthy-looking stage V-VI oocytes were manually selected for RNA microinjection. The RNA was generated as following: The codon-optimized sequences of PfCRT variants were cloned into the pSP64T expression vector. After vector linearization using the restriction endonucleases BamHI or SalI (New England Biolabs), transcription was performed using the in vitro SP6 mMessage mMachine Kit (Ambion)[34]. The obtained RNA was kept at −80 °C and diluted with nuclease-free water to a concentration of 0.6 μg μl^−1. Precision-bore glass capillary tubes (3.5-inch glass capillaries; Drummond Scientific Co.) were pulled on a vertical puller (P-87 Flaming/Brown micropipette puller, Sutter Instrument Co.), graduated, and placed on a microinjector (Nanoject II Auto-Nanoliter Injector, Drummond Scientific Co.). 50 nl of nuclease-free water alone (control oocytes) or 50 nl of 0.6 μg μl^−1 RNA were injected under stereomicroscopic control. Injected oocytes were incubated for 46–72 h at 18 °C with twice-daily buffer changes before usage in experiments.
Drug uptake assays were performed as described previously[21],[22],[24],[34]. […] The direction of radio-labeled drug transport is here from the mostly acidic extracellular solution (pH 4.5 or 6.0, as indicated) into the oocyte cytosol (pH ∼ 7.2), which corresponds to the efflux of drug from the acidic digestive vacuole (pH 5.2) into the parasite cytoplasm (pH 7.2). The topology of PfCRT in the oolemma is such that both the N- and C-terminus face the extracellular milieu[3],[22]. In the parasite, the N- and C-terminus face the lumen of the digestive vacuole. CQ uptake kinetics were performed by incubating oocytes in ND96 buffer adjusted to a pH of 4.5, 5.0, 5.5, or 6.0 and supplemented with 50 nM [^3H]CQ and one of 7 different CQ concentrations (10 µM, 50 µM, 100 µM, 200 µM, 300 µM, 400 µM, 500 µM CQ). The reaction was stopped at the 60 min time point, which is in the linear uptake range[22],[34] (Supplementary Fig. 17). For determination of the amount of drug uptake for each oocyte, the reaction medium was removed and the oocytes were washed three times with 2 ml of ice-cold ND96 buffer. Each oocyte was individually transferred to a scintillation vial containing 5% sodium dodecyl sulfate (200 μl) for lysis. The radioactivity of each sample was measured using a liquid scintillation analyzer Tri-Carb 4910 TR (PerkinElmer). Oocytes that were injected with water instead of RNA were analyzed in parallel, representing the uptake of a drug by diffusion and/or endogenous permeation pathways. The resulting value represents the “background“ level of drug accumulation in oocytes (in-depth discussion in[22]). […]

[1] = D410A, 50 µM CQ, 1 h, mean ± SEM

## CCN(CC)CCCC(C)Nc1ccnc2cc(Cl)ccc12 (stereo not drawn) [CQ, chloroquine]
[1]
  Activity at pH 4.5: 2.38 ± 0.18 pmol h-1 oocyte-1
  Activity at pH 6.0: 5.09 ± 0.24 pmol h-1 oocyte-1
D410A, CQ transport at pH 4.5 / pH 6.0
  R-value: 0.47 ± 0.06
pH 4.5, single replicates, Fig 1d left
  D410A transport activity pH 4.5: 2.74 pmol oocyte-1 h-1 and 1.99 pmol oocyte-1 h-1 and 2.40 pmol oocyte-1 h-1
pH 4.5 vs pH 6.0, Fig 1d left
  D410A R-value: 0.60 and 0.35 and 0.47
pH 6.0, single replicates, Fig 1d left
  D410A transport activity pH 6.0: 4.58 pmol oocyte-1 h-1 and 5.61 pmol oocyte-1 h-1 and 5.09 pmol oocyte-1 h-1

Reference: PMC10349806 (Nature Communications, 2023)
